Source: article PMC5507300, “Antibacterial small molecules targeting the conserved TOPRIM domain of DNA gyrase” (PLoS ONE, 2017)

What was measured:
Type in all cases: biochemical
[1] = target: T1, S. aureus DNA gyrase (Staphylococcus aureus, UniProt P0A0K8); assay: S. aureus DNA gyrase supercoiling reaction; conditions: maximum achievable concentration (200 μM), pHOT-1 supercoiling
T1 construct: purchased TopoGEN, Inc

[2] = target: T2, wild-type E. coli DNA gyrase (recombinant GyrA/GyrB) (Escherichia coli, UniProt P0AES6); assay: Gel supercoiling assay, reconstituted wild-type gyrase
T2 construct: made in house; host or cells: E. coli BL21(DE3) RIL
Experimental: (§1) Conditions to measure the supercoiling of a relaxed, closed-circular plasmid substrate and cleavage complex stabilization in agarose gels were adapted from the literature and carried out as described below. Plasmid supercoiling reactions were assembled by combining 0.4 μL compound (in 100% DMSO), 12.5 μL H2O, 4 μL 5Xbuffer, 0.4 μL relaxed pUC19 DNA substrate (0.5 μg), […] dilute DNA gyrase (buffer, substrate, and enzyme from New England Biolabs, Beverly, MA). Alternatively the substrate pHOT-1 (TopoGEN, Buena Vista, CO) was used as noted (the substrate from New England Biolabs has been discontinued). P. aeruginosa DNA gyrase was supplied by Inspiralis, Norwich, UK. […] The gel was illuminated with UV light, photographed, and DNA quantitated with an Alpha Imager and accompanying software (ProteinSimple, San Jose, CA). […]
(§2) The E. coli gyrA and gyrB (wild-type and t1537c (F513L)) genes with a N-terminal His6 tag sequence followed by Tobacco Etch Virus (TEV) cleavage site ([…]) were cloned into pET28(+) vector (EMD Millipore). […] Fractions containing gyrase subunit protein (as monitored by sodium dodecyl sulfate polyacrylamide gel electrophoresis (SDS-PAGE)) were pooled and loaded onto a Q-Sepharose column (GE Healthcare, Princeton, NJ, USA) equilibrated in 20 mM Tris-HCl (pH = 7.9), 25mM NaCl, 10% glycerol, and 2 mM β-mercaptoethanol. […]

[3] = target: T3, E. coli DNA gyrase GyrB (F513L) (Escherichia coli, UniProt P0AES6, F513L); assay: Gel supercoiling assay, reconstituted GyrB (F513L) gyrase
T3 construct: His6 tag followed by TEV site (X1: […]) (N, cleaved yes); made in house; host or cells: E. coli BL21(DE3) RIL
Experimental: as §1, §2

T1 sequence (P0A0K8 whole entry): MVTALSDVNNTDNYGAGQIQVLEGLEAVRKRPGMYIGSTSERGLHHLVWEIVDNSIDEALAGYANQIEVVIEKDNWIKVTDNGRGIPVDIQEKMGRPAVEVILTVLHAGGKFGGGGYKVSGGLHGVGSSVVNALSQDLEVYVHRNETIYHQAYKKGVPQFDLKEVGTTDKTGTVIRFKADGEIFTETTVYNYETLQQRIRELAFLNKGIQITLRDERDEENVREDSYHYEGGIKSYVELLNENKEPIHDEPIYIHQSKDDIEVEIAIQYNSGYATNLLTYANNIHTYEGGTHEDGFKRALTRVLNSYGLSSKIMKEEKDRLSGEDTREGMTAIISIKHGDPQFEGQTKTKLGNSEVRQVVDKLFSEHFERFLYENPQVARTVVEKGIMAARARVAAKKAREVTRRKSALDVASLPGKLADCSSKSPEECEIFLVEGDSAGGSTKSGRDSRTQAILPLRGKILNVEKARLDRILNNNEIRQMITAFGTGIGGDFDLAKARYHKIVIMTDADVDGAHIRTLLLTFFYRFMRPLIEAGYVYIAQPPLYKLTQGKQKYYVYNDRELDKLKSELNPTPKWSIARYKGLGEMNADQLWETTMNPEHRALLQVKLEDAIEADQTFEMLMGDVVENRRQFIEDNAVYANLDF
T1 sequence (P20831 whole entry, further chain): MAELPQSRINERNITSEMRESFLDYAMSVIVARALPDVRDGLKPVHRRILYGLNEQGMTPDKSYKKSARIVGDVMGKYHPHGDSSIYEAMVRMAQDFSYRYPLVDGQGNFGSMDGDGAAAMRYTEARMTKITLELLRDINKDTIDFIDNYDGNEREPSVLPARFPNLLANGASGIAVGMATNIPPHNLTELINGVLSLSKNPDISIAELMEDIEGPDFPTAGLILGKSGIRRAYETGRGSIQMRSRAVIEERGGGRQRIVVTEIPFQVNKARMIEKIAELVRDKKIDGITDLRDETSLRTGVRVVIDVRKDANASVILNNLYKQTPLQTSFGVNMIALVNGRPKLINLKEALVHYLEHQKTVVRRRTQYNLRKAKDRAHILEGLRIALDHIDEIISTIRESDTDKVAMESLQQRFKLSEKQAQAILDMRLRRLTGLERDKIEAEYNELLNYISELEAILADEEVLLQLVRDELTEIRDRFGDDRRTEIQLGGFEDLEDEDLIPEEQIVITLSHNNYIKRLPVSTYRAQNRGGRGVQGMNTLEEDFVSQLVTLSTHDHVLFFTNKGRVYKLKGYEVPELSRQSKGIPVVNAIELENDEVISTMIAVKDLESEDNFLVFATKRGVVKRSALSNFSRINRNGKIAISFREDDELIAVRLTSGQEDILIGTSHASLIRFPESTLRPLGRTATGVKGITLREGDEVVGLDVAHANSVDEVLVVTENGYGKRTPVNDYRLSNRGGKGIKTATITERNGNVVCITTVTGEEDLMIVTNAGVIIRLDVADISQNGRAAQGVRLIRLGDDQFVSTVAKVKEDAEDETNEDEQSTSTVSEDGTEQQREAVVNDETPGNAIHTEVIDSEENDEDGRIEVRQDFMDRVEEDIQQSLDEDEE

Structure (SMILES): Cn1ncc2cc(-c3nnnn3C3CCN(C(=O)Nc4ccc(Cl)c(Cl)c4)CC3)ccc21 [MRL-1082]
- activity against S. aureus DNA gyrase [1]: does not inhibit
- IC50 [2]: ~3.5 µM
- IC50 [3]: > 200 µM
